Entries after “also recorded” stand apart in the source; their conditions may differ.

Data on four compounds can be found in patent US9259404B2 (NESTEC S.A., priority 2012, dated 2016).

Data set [1] deals with neuron astrocyte co-cultures. Kind of data set: Neuron-astrocyte co-culture, oxidative stress induced by hydrogen peroxide, MTT assay. In kind it is cell-based, mouse. Particulars: 48 hours pre-treatment, 100 μM hydrogen peroxide 4 hours. The source says: The beneficial effect of compounds on cell survival is classically investigated by challenging the cell cultures with neurotoxic insults and measuring the resulting oxidative stress and excitotoxicity over a limited period of time (Aksenova et al., Current Neurovascular Research, 2, 73-89 (2005)). […] The model consists of primary neurons plated on glass coverslips that face astrocytes seeded on the bottom of a culture dish. The two cellular compartments are separated by paraffin beads, but released compounds (e.g., energy substrates and glutathione precursors) can freely diffuse from one compartment to the other through the culture medium. Primary cultures of mouse neurons are grown for 12 days in Neurobasal™ medium on 20 mm diameter glass coverslips. Primary cultures of mouse astrocytes are grown for 21 days in astrocytes culture medium in 35 mm diameter dishes. Two hours before initiation of the co-culture, the astrocyte medium is removed and replaced by a fresh neuronal medium. The co-culture is initiated by putting the glass coverslips bearing neurons in the dishes containing astrocyte culture so that neurons face astrocytes. […] For detection this purple product is solubilised for colorimetric quantification at 560 nm using a spectrophotometer.
A general note: Formazan colour is commonly taken as a measure of viable cells.

The test system of a further data set is AREc32 cells. Kind of data set: Cell viability of AREc32 cells (ATP quantification, Cell Titer-Glo). In kind it is cell-based. Conditions: 24 h. How it is done: The cell viability, measured by ATP quantification, is expressed as relative percentages of control (untreated) cells. The results are expressed as means of technical triplicates±SD and are representative of four independent experiments.
To determine the Nrf2 activation the samples were tested on AREC32 cells (seeded in 96 well plates) using 10 independent dilutions (1/2, 1/4, 1/6, 1/10, 1/15, 1/20, 1/25, 1/30, 1/40 and 1/50) and incubated for 24 hours at 37° C. in a 5% CO2/air incubator. The luciferase activity and the cell viability (ATP measurements) were determined using the Luciferase and Cell Titer-Glo kits from Promega.
The cell viability was also measured using a cell Titer-Glo kit (ATP quantification).
For orientation: In ATP-based viability assays light output follows the ATP content of the culture.

In another data set the test system is Nrf2. Kind of data set: Nrf2 reporter assay (AREc32 cell line, luciferase under control of the ARE). In kind it is cell-based. Conditions: AREc32 cells, 24 h, dose range 0 to 200 μM (FIG. 3). How it is done:
Activation of Nrf2 was measured using an Nrf2 reporter assay. This assay is based on the AREc32 cell line, from CRX biosciences (Dundee, Scotland), a stably transfected MCF7 (breast adenocarcinoma) cell line that contains a luciferase gene construct under the control of the ARE. Luciferase is an enzyme which digests luciferin and produces […]. Anti-oxidative molecules such as Tert-butylhydroquinone (TBHQ) induce luciferase transcription via the activation of Nrf2 that binds to ARE. Luciferase activity is determined using a luciferase kit form Promega (Madison, Wis.). The luciferase activity is proportional to the activation of Nrf2. […] The luciferase activity and the cell viability (ATP measurements) were determined using the Luciferase and Cell Titer-Glo kits from Promega. For each run the luciferase activities, measured in Relative Light Units (RLU), of all the wells were normalized with the mean of the luciferase activity of the cells only of all the plates. Among all the samples tested the normalization procedure was found not to affect the data and this observation permits the comparison of samples measured in different runs. For each sample the Nrf2 activation was calculated as follows: […] […] The luciferase content per sample allows a semi quantification of the Nrf2 activation by reflecting the amount of the Nrf2 activating molecule. […]
For orientation: In a reporter assay the amount or activity of a reporter protein is the signal.

For data set [2] the following is noted: background statement; cited from earlier work.

For the compound `CC(=O)/C=C/C(=O)O` [4-oxo-2-pentenoic acid], the “Concentration giving the strongest protective effect” value in data set [1] turned out to be 5 µM. For the same compound, in data set [1] (all tested concentrations (5 μM to 30 μM) except 10 μM), the “Protection of neurons against oxidative stress (in words)” value is “protects neuronal cells against oxidative stress; also recorded: clear and significant protection”. The “Doses at which viability of AREc32 cells was not affected” value with AREc32 cells is recorded as “lower than 70 μM”. Moreover, the “Nrf2 activation (in words)” value in the data set with Nrf2 is on record as “activates Nrf2; also recorded: strongly activate Nrf2 in a dose dependent manner”.
Consider `COc1cc(/C=C/C(=O)CC(=O)/C=C/c2ccc(O)c(OC)c2)ccc1O` [curcumin], for which, in data set [2], the “Aqueous solubility (in words)” value is “very low aqueous solubility”.
Turning to `O=c1c(O)c(-c2ccc(O)c(O)c2)oc2cc(O)cc(O)c12` [quercitin], the “Aqueous solubility (in words)” value in data set [2] is reported as “very low aqueous solubility”.
Turning to `Oc1ccc(C=Cc2cc(O)cc(O)c2)cc1` [resveratrol], in data set [2], the “Aqueous solubility (in words)” value was “very low aqueous solubility”.
